Patent US4311699A, “Aminoacid derivatives of cephalosporin compounds” (priority 1980, dated 1982)
Values after ≈ are worked out from the molar mass of the structure shown.

Tests used:
Experiment in all cases: in vitro antibacterial activity, minimal inhibitory concentration
Assay type in all cases: cell-based
[1] = test system: Staph. aureus UC-76; conditions: Staphylococcus aureus, UC76; Staph. aureus UC-76, in vitro
Text: (§1) The compounds of the invention are new chemical compounds that are used as pharmacological agents and especially as broad spectrum antibacterial agents. They are active in vitro against strains of both gram-positive and gram-negative bacteria.
(§2) Minimal Inhibitory Concentration (μg/ml)

[2] = test system: Pseudomonas #28; conditions: Pseudomonas #28, in vitro; read-out: Minimal Inhibitory Concentration
Text: as §1, §2

[3] = test system: Pseudomonas BRK 12-4-4; conditions: BRK1244; Pseudomonas BRK 12-4-4, in vitro
Text: as §1, §2

[4] = test system: Strep. fec.
Text: as §1, §2

[5] = test system: Serr. marces.
Text: as §1, §2

[6] = test system: Prot. vulg.
Text: as §1, §2

[7] = test system: Entero. cloacae; conditions: Enterobacter cloacae
Text: as §1, §2

[8] = test system: E. coli Brig; conditions: Escherichia coli
Text: as §1, §2

[9] = test system: Staph. aureus S18733; conditions: Staphylococcus aureus
Text: as §1, §2

[10] = test system: Pseudomonas UI 18; conditions: UI18; Pseudomonas UI 18, in vitro
Text: as §1, §2

[11] = test system: Klebs. pneu.
Text: as §1, §2

[12] = test system: E. coli Vogel; conditions: Escherichia coli
Text: as §1, §2

Row | SMILES | MIC [1] [µg/mL] | MIC [2] [µg/mL] | MIC [3] [µg/mL] | MIC [4] [µg/mL] | MIC [5] [µg/mL] | MIC [6] [µg/mL] | MIC [7] [µg/mL] | MIC [8] [µg/mL] | MIC [9] [µg/mL] | MIC [10] [µg/mL] | MIC [11] [µg/mL] | MIC [12] [µg/mL]
1 | CC(=O)N[C@H](C)C(=O)Nc1ccc(-c2ncc(C(=O)N[C@@H](C(=O)NC3C(=O)N4C(C(=O)O)=C(CSc5nnnn5CC(=O)O)CSC34)c3ccc(O)cc3)c(O)n2)cc1 (stereo partly drawn) [Example 37, N-[2-[4-(N-Acetyl-D-alanylamino)phenyl]-4-hydroxy-5-pyrimidinylcarbonyl)-7-[D-2amino-2-(4-hydroxyphenyl)acetamido]-3-[[(1-carboxymethyl-1H-tetrazol-5-yl)thio]methyl]-3-cephem-4-carboxylic acid] | 25 (≈ 29.5 µM) | 12.5 (≈ 14.7 µM) | 12.5 (≈ 14.7 µM) | > 50 | > 50 | 1.6 (≈ 1.89 µM) | 12.5 (≈ 14.7 µM) | 12.5 (≈ 14.7 µM) | 25 (≈ 29.5 µM) | 6.3 (≈ 7.43 µM) | 12.5 (≈ 14.7 µM) | 3.1 (≈ 3.66 µM)
2 | CC(=O)N[C@H](C)C(=O)Nc1ccc(-c2ncc(C(=O)N[C@@H](C(=O)N[C@@H]3C(=O)N4C(C(=O)O)=C(COC(C)=O)CS[C@H]34)c3cccs3)c(O)n2)cc1 [Example 19, N-[2-[4-(N-Acetyl-D-alanylamino)phenyl]-4-hydroxy-5-pyrimidinylcarbonyl]-7-[D-2-amino-2-(2-thienyl)acetamido]-3-acetoxymethyl-3-cephem-4-carboxylic acid] | 0.8 (≈ 1.08 µM) | 6.3 (≈ 8.54 µM) | 6.3 (≈ 8.54 µM) | 25 (≈ 33.9 µM) | > 50 | 25 (≈ 33.9 µM) | 50 (≈ 67.8 µM) | > 50 | 1.6 (≈ 2.17 µM) | 6.3 (≈ 8.54 µM) | 12.5 (≈ 16.9 µM) | 12.5 (≈ 16.9 µM)
3 | CC(=O)NCCCC(=O)Nc1ccc(-c2ncc(C(=O)N[C@@H](C(=O)NC3C(=O)N4C(C(=O)O)=C(CSc5nnnn5C)CSC34)c3ccccc3)c(O)n2)cc1 (stereo partly drawn) [Example 27, N-[2-[4-(N-Acetyl-aminobutyrylamino)phenyl]-4-hydroxy-5-pyrimidinylcarbonyl]-7-[D-2-amino-2-phenylacetamido]-3-[[(1-methyl-1H-tetrazol-5-yl)thio]methyl]-3-cephem-4-carboxylic acid] | 1.6 (≈ 2 µM) | 3.1 (≈ 3.87 µM) | 12.5 (≈ 15.6 µM) | 25 (≈ 31.2 µM) | 25 (≈ 31.2 µM) | 12.5 (≈ 15.6 µM) | 6.3 (≈ 7.86 µM) | 12.5 (≈ 15.6 µM) | 6.3 (≈ 7.86 µM) | 6.3 (≈ 7.86 µM) | 1.6 (≈ 2 µM) | 1.6 (≈ 2 µM)
4 | CC(=O)NC(C)C(=O)Nc1ccc(-c2ncc(C(=O)N[C@@H](C(=O)N[C@@H]3C(=O)N4C(C(=O)O)=C(COC(C)=O)CS[C@H]34)c3ccc(O)cc3)c(O)n2)cc1 (mixture of isomers) [Example 9, N-[2-[4-(N-Acetyl-DL-alanylamino)phenyl]-4-hydroxy-5-pyrimidinylcarbonyl]-7-[D-2-amino-2-(4-hydroxyphenyl)acetamido]-3-acetoxymethyl-3-cephem-4-carboxylic acid] | 3.1 | 1.6 | 3.1 | 50 | > 50 | 12.5 | 50 | 50 | 6.3 | 3.1 | 12.5 | 12.5
5 | CC(=O)NCCCC(=O)Nc1ccc(-c2ncc(C(=O)N[C@@H](C(=O)N[C@@H]3C(=O)N4C(C(=O)O)=C(COC(C)=O)CS[C@H]34)c3ccccc3)c(O)n2)cc1 [Example 16, N-[2-[4-(N-Acetyl-γ-aminobutyrylamino)phenyl]-4-hydroxy-5-pyrimidinylcarbonyl]-7-[D-2-amino-2-phenylacetamido]-3-acetoxy-methyl-3-cephem-4-carboxylic acid] | 0.8 (≈ 1.07 µM) | 6.3 (≈ 8.45 µM) | 12.5 (≈ 16.8 µM) | 25 (≈ 33.5 µM) | > 50 | 25 (≈ 33.5 µM) | 25 (≈ 33.5 µM) | 50 (≈ 67 µM) | 3.1 (≈ 4.16 µM) | 12.5 (≈ 16.8 µM) | 12.5 (≈ 16.8 µM) | 6.3 (≈ 8.45 µM)
6 | CC(=O)NCC(=O)Nc1ccc(-c2ncc(C(=O)N[C@@H](C(=O)NC3C(=O)N4C(C(=O)O)=C(CSc5nnnn5C)CSC34)c3ccccc3)c(O)n2)cc1 (stereo partly drawn) [Example 22] | 1.6 (≈ 2.07 µM) | 6.3 (≈ 8.14 µM) | 12.5 (≈ 16.2 µM) | 50 (≈ 64.6 µM) | 50 (≈ 64.6 µM) | 6.3 (≈ 8.14 µM) | 6.3 (≈ 8.14 µM) | 6.3 (≈ 8.14 µM) | 3.1 (≈ 4.01 µM) | 12.5 (≈ 16.2 µM) | 0.8 (≈ 1.03 µM) | 0.8 (≈ 1.03 µM)
